System: THP-1 Lucia ISG cells
Assay: ISG-LUC activation assay (ISRE-luciferase assay)
Format: cell-based
Settings: Homo sapiens, THP1-Lucia ISG; THP-1 Lucia ISG reporter cells, 24 hours; score based upon potency and efficacy relative to reference compound; read-out: ISG-LUC activation assay score
Source text: We have established a robust platform for identifying non-nucleotide small molecule STING agonists. his has been established using a primary assay involving a human THP-1 cell line carrying an IRF-inducible reporter with 5 copies of the IFN signaling response element. Counter screens, involving alternative reporter constructs, rodent cell-based assays, as well as cGAS and STING knock-out cell lines, are used to eliminate luciferase artifacts and ensure human-rodent cross species reactivity, as well as pathway selectivity. Biochemical assays, involving cGAS enzymatic activity and STING protein binding assays, are used to identify the specific target of identified hits.
Tissue culture. Wild-type (cat. no. thpl-isg) and STING KO (cat. no. thpd-kostg) THP-1-Lucia ISG cells were purchased from Invivogen and maintained in growth media consisting of RPMI 1640, 2mM L-glutamine, […], 10% heat-inactivated fetal bovine serum (FBS), 1,000 units/ml penicillin, 1,000 μg/ml streptomycin, 0.25 μg/ml Amphotericin B, and 100 μg/ml zeocin unless otherwise stated.
ISRE-luciferase assay. THP-1 Lucia ISG cells were resuspended in low-serum growth media (2% FBS) at a density of 5×10^5 cells/ml and treated with test article or vehicle (DMSO). 50 μL of cells were seeded into each well of a 384-well white greiner plates and incubated for 24 hours. To evaluate expression of the luciferase reporter, 30 μl of Quanti-luc (Invivogen) detection reagent was added to each well and luminescence was read using an Envision plate reader (Perkin Elmer) set with an integration time of 0.1 seconds.

SMILES | EC50 [nM]
C#Cc1cc(NC(=O)c2ccn3c(S(C)(=O)=O)nnc3n2)c(C(=O)O)cc1F [Compound 62] | > 20000
C#Cc1cc(NC(=O)c2ccn3c([S+](C)[O-])nnc3n2)c(C(=O)O)cc1F (stereo not drawn) [Compound 63] | > 20000
C=Cc1ccc(C(=O)OC)c(NC(=O)c2cc(N)c3nnnn3n2)c1 [Compound 64] | < 900
COC(=O)c1cc(Cl)c(Cl)cc1NC(=O)c1nn2nnnc2cc1N [Compound 65] | < 900
C=C(F)c1ccc(C(=O)O)c(NC(=O)c2cc(N)c3nnnn3n2)c1 [Compound 66] | < 900
COC(=O)c1cc(F)c(OC)cc1NC(=O)c1cc(N)c2nnnn2n1 [Compound 67] | < 900
COC(=O)c1cc(C#N)c(Cl)cc1NC(=O)c1cc2[nH]cnc2cn1 [Compound 68] | > 1000
COC(=O)c1cc(F)c(F)cc1NC(=O)c1cc2[nH]cnc2cn1 [Compound 69] | < 900
C#Cc1cc(NC(=O)c2cc(NC(=O)OC(C)(C)C)c3nnnn3n2)c(C(=O)OC)cc1F [Compound 70] | > 1000
COC(=O)c1cc(F)c(F)cc1NC(=O)c1ccc2nnnn2n1 [Compound 71] | > 1000
COC(=O)c1cc(C#N)c(Cl)cc1NC(=O)c1cnc2nc[nH]c2c1 [Compound 72] | > 20000
COc1cc(NC(=O)c2cc(N)c3nnnn3n2)c(C(=O)O)cc1F [Compound 73] | > 1000
Nc1cc2nnnn2nc1C(=O)Nc1cc(Cl)c(Cl)cc1C(=O)O [Compound 74] | < 3000
COC(=O)c1cc(F)c(F)cc1NC(=O)c1ccn2c(C#N)cnc2n1 [Compound 75] | > 1000
COC(=O)c1cc(F)c(F)cc1NC(=O)N1CCn2cncc2C1 [Compound 76] | > 1000
COC(=O)c1cc(Cl)c(Cl)cc1NC(=O)c1nc2nc(O)ccn2n1 [Compound 77] | > 1000
O=C(Nc1cc(F)c(F)cc1C(=O)O)c1cc2[nH]cnc2cn1 [Compound 78] | > 1000
COC(=O)c1cc(F)c(OC)cc1NC(=O)c1cc(NC(=O)OC(C)(C)C)c2nnnn2n1 [Compound 79] | > 1000
COC(=O)c1cc(F)c(F)cc1NC(=O)c1nc2cnccn2n1 [Compound 80] | > 1000
COc1ccc(C(=O)O)c(NC(=O)c2cc(N)c3nnnn3n2)c1 [Compound 81] | > 1000
Nc1cc(C(=O)Nc2cc(Cl)c(Cl)cc2C(=O)O)nn2nnnc12 [Compound 82] | > 1000
Nc1cc(C(=O)Nc2cc(Cl)c(F)cc2C(=O)O)nn2nnnc12 [Compound 83] | < 900
COc1cc(NC(=O)c2cc(N)c3nnnn3n2)c(C(=O)O)cc1Cl [Compound 84] | > 1000
COC(=O)c1cc(F)c(F)cc1NC(=O)c1cc2ncccn2n1 [Compound 85] | > 20000
COc1cc(NC(=O)c2cc(NC(=O)OC(C)(C)C)c3nnnn3n2)c(C(=O)O)cc1F [Compound 86] | > 1000
COc1cc(NC(=O)c2nc3ccc(C(N)=O)nc3[nH]2)c(C(=O)O)cc1F [Compound 87] | > 20000
O=C(O)c1cc(Cl)c(Cl)cc1NC(=O)c1cccn2cnnc12 [Compound 88] | > 20000
COC(=O)c1cc(Cl)c(Cl)cc1NC(=O)c1cccn2cnnc12 [Compound 89] | > 1000
COC(=O)c1cc(C#N)c(Cl)cc1NC(=O)c1cc2[nH]ncc2cn1 [Compound 90] | > 1000
COC(=O)c1cc(Cl)c(Cl)cc1NC(=O)c1nc2n(n1)CCC(=O)N2 [Compound 91] | > 1000
